# Test results as given in patent publication US20210330611A1, “THERAPY FOR NEUROLOGICAL DISEASES/DISORDERS” (priority 2020, published 2021).
# Values joined by “and” are separate entries in the source; they are usually repeats but may differ in a detail not shown here. Equal entries are not always repeated. Structures can show the parent of a compound that is named as a salt. Where two headings read alike, the source gives them in different places.
# Key:
# [1] = tested on: fibrin-induced microglia activation; assay: Image-based assay of fibrin-induced microglia activation (HTS and dose response); assay type: cell-based, rat; conditions: for inhibition at 10 µM: Rattus norvegicus, Microglia, read-out: Fibrin % inhibition
# [2] = tested on: LPS-induced microglia activation; assay: Image-based assay of LPS-induced microglia activation (HTS and dose response); assay type: cell-based, rat
# [3] = tested on: fibrin- and LPS-induced microglia activation; assay: cells; assay type: cell-based, rat
# [4] = tested on: primary rat microglia
# [5] = tested on: primary rat microglia; assay: Cell toxicity (dead cells, size <150 μm2) in coated fibrin (cFib) assay; conditions: primary microglia HTS;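 further: share of dead cells sized under 150 µm2 at 10 µM in fibrin-stimulated microglia HTS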
# [6] = primary microglia HTS, fibrin stimulation, compounds at 10 μM
# [7] = Rattus norvegicus, Microglia, primary microglia HTS, LPS stimulation, compounds at 10 μM; read-out: LPS % inhibition
# [8] = classification by fibrin and LPS inhibition, HTS at 10 μM
# [9] = Rattus norvegicus, Microglia, 48 h, read-out: LPS % inhibition
# [10] = Rattus norvegicus, Microglia, read-out: LPS % inhibition
# [11] = primary microglia HTS, fibrin stimulation, cell size >800 μm2 as marker of activation
# [12] = Rattus norvegicus, Microglia, 48 h; read-out: LPS % inhibition
# [13] = classification by fibrin and LPS inhibition in HTS
# [14] = primary HTS, 10 μM, fibrin-stimulated primary microglia
# [15] = Rattus norvegicus, Microglia, primary HTS, 10 μM, LPS-stimulated primary microglia; read-out: LPS % inhibition
# [16] = quadrant by fibrin and LPS inhibition, HTS at 10 μM
# [17] = fibrin stimulation, cell size <150 μm2 as marker of toxicity
# [18] = fibrin assay, dead cells (size <150 μm2)
# [19] = quadrant by fibrin and LPS inhibition in HTS of 1907 compounds
compound,measurement,setting,value
CCN1CCN(c2cc3c(cc2F)c(=O)c(C(=O)O)cn3C2CC2)CC1 [Enrofloxacin],inhibition at 10 µM,[1]; [6],5%
same,inhibition at 10 µM,[2]; [7],23%
same,Quadrant (FIG. 5b),[3]; [8],Q4
same,LPS % cell toxicity,[4]; rat,1%
CC(C)c1cccc(C(C)C)c1O [Propofol],inhibition at 10 µM,[1],-18%
same,inhibition at 10 µM,[2]; [9],11%
same,Quadrant (FIG. 5b),[3],Q4
same,LPS % cell toxicity,[4]; rat,0%
Cc1c(C(N)=O)cc([N+](=O)[O-])cc1[N+](=O)[O-] [Dinitolmide],inhibition at 10 µM,[1],-45%
same,inhibition at 10 µM,[2]; [10],10%
same,Quadrant (FIG. 5b),[3],Q4
same,LPS % cell toxicity,[4]; rat,0%
CC(C)NC[C@@H](O)COc1cccc2ccccc12 [Dexpropranolol Hydrochloride],inhibition at 10 µM,[1],-21%
same,inhibition at 10 µM,[2]; [10],19%
same,Quadrant (FIG. 5b),[3],Q4
same,LPS % cell toxicity,[4]; rat,0%
CCN1CCN(C(=O)N[C@@H](C(=O)N[C@@H]2C(=O)N3[C@@H]2SC(C)(C)[C@@H]3C(=O)O)c2ccccc2)C(=O)C1=O [Piperacillin Sodium],inhibition at 10 µM,[1]; [11],-25%
same,inhibition at 10 µM,[2]; [12],17%
same,Quadrant (FIG. 5b),[3]; [13],Q4
same,LPS % cell toxicity,[4]; rat,0%
CCN(CC)CCNC(=O)c1cc(Br)c(N)cc1OC [Bromopride],inhibition at 10 µM,[1]; [14],-2%
same,inhibition at 10 µM,[2]; [15],4%
same,Quadrant (FIG. 5b),"[3]; primary HTS, 10 μM",Q4
same,LPS % cell toxicity,[4]; rat,0%
CC1CNc2c(cccc2S(=O)(=O)N[C@@H](CCCNC(=N)N)C(=O)N2CC[C@@H](C)C[C@@H]2C(=O)O)C1 (stereo partly shown) [Argatroban],inhibition at 10 µM,[1]; [6],-10%
same,inhibition at 10 µM,[2]; [7],8%
same,Quadrant (FIG. 5b),[3]; [16],Q4
same,LPS % cell toxicity,[4]; rat,0%
"COc1ccccc1OCC(O)CN1CCN(CC(=O)Nc2c(C)cccc2C)CC1 (stereo not shown) [Ranolazine, Ranolazine Dihydrochloride]",LPS % inhibition,[2],12% and 2%
same,Quadrant (FIG. 5b),[3]; [13],Q4
same,LPS % cell toxicity,[4],0%
same,Fibrin % cell toxicity,[5]; [17],0% and 1%
CO[C@H]1O[C@@H]2O[C@@]3(C)CC[C@H]4[C@H](C)CC[C@@H]([C@H]1C)[C@@]24OO3 [Artemether],LPS % inhibition,"[2]; primary microglia HTS, LPS stimulation, compounds at 10 μM; 10 µM",0% and 4%
same,Quadrant (FIG. 5b),[3]; [16],Q4
same,LPS % cell toxicity,[4]; rat,0%
same,Fibrin % cell toxicity,[5]; [18],1% and 0%
O=NN(CCCl)C(=O)NCCCl [Carmustine],inhibition at 10 µM,[1]; [14],1%
same,inhibition at 10 µM,[2]; [15],9%
same,Quadrant (FIG. 5b),"[3]; primary HTS, 10 μM",Q4
same,LPS % cell toxicity,[4]; rat,0%
CN1CCC(OC(c2ccccc2)c2ccccc2)CC1 [Diphenylpyraline],inhibition at 10 µM,[1],-69%
same,inhibition at 10 µM,[2]; [10],6%
same,Quadrant (FIG. 5b),[3],Q4
same,LPS % cell toxicity,[4]; rat,0%
COc1ccc(C[C@H](N)C(=O)N[C@H]2[C@@H](O)[C@H](n3cnc4c(N(C)C)ncnc43)O[C@@H]2CO)cc1.Cl.Cl,LPS % inhibition,"[2]; primary microglia HTS, LPS stimulation, compounds at 10 μM",124%
same,Quadrant (FIG. 5b),[3]; [16],Q2
same,LPS % cell toxicity,[4],52%
same,Fibrin % cell toxicity,[5]; [18],66%
CCOC(=O)c1cncn1[C@H](C)c1ccccc1 [Etomidate],Fibrin % inhibition,"[1]; primary microglia HTS, fibrin stimulation, compounds at 10 μM, 10 µM",−19% and −24%
same,Quadrant (FIG. 5b),[3]; [8],Q4
same,LPS % cell toxicity,[4]; rat,0%
same,Fibrin % cell toxicity,"[5]; fibrin assay, dead cells (size <150 μm2), compounds at 10 μM",0%
CC(Cc1ccccc1)(NC(=O)CN)c1ccccc1 (stereo not shown) [Remacemide Hydrochloride],inhibition at 10 µM,[1],-21%
same,inhibition at 10 µM,[2]; [9],13%
same,Quadrant (FIG. 5b),[3],Q4
same,LPS % cell toxicity,[4]; rat,0%
CCN(CC)Cc1cc(Nc2ccnc3cc(Cl)ccc23)ccc1O [Amodiaquine Dihydrochloride],inhibition at 10 µM,"[1]; primary microglia HTS, fibrin stimulation, increased cell size (>800 μm^2) as marker of activation",4%
same,inhibition at 10 µM,"[2]; Rattus norvegicus, Microglia, 48 h, primary microglia HTS, LPS stimulation; increased cell size (>800 μm^2) as marker of activation; read-out: LPS % inhibition",114%
same,Quadrant (FIG. 5b),[3]; [19],Q1
same,LPS % cell toxicity,[4]; rat,85%
CCCCCCCCCCCCCCCC(=O)NCCO [Palmidrol],inhibition at 10 µM,[1],-40%
same,inhibition at 10 µM,[2]; [9],7%
same,Quadrant (FIG. 5b),[3],Q4
same,LPS % cell toxicity,[4]; rat,0%
CCN(C)C(=O)Oc1cccc([C@H](C)N(C)C)c1 [Rivastigmine],inhibition at 10 µM,[2]; [12],5%
same,Quadrant (FIG. 5b),[3]; [13],Q4
same,LPS % cell toxicity,[4]; rat,0%
same,Fibrin % cell toxicity,[5]; [17],1%
"COc1ccc(Cl)cc1C(=O)NCCc1ccc(S(=O)(=O)NC(=O)NC2CCCCC2)cc1 [Glibenclamide, Glyburide]",Fibrin % inhibition,"[1]; primary microglia HTS, fibrin stimulation, activation = cell size >800 μm2",−23%
same,LPS % inhibition,"[2]; primary microglia HTS, LPS stimulation, activation = cell size >800 μm2",8%
same,Quadrant (FIG. 5b),[3]; [19],Q4
same,LPS % cell toxicity,[4],0%
O=C(O[C@H]1CN2CCC1CC2)N1CCc2ccccc2[C@@H]1c1ccccc1 [Solifenacin Succinate],inhibition at 10 µM,[1]; [11],-2%
same,inhibition at 10 µM,[2]; [12],-4%
same,Quadrant (FIG. 5b),[3]; [13],Q4
same,LPS % cell toxicity,[4]; rat,0%
